In patent publication US9849189B2, “Targeted delivery of antimicrobial agents” (George Mason Research Foundation, Inc., priority 2008, dated 2017):
Like-named read-outs stand apart in the source and are kept apart here. No end group written: not given here.

Assays:
K12 E. coli = format: cell-based
Protocol: The antimicrobial activities of the peptides and their acetylated derivatives may be assessed using K-12 E. coli and assays based on an existing protocol used to study derivatives of hBD-3. The bacteria may be grown to mid-log phase in Luria Bertani (LB) broth. Aliquots of the culture may then be diluted (to a cell density of about 10^6 CFU/ml) into 10 mM sodium phosphate at a pH of about 7.5. Each of the aliquots may contain varied concentrations of peptide or acetylated peptide. The diluted bacterial cultures may then be incubated for about 2 hours at a temperature of about 37° C. After the proscribed time, serial dilutions of the assay cultures may be plated onto LB agar plates, and then allowed to incubate overnight at a temperature of about 37° C. After incubating, colonies may be counted. Dose-response curves may be prepared to calculate EC50's.
The antibacterial activities of the free and acetylated peptides may be determined using K12 E. coli and a known assay protocol. Bacteria may be incubated in Luria Bertani broth at 37° C. until reaching an OD600 of ˜0.8-˜1.1. Cell density may be monitored using optical density at 600 nm. Cells were then diluted to a concentration of 10^6 CFU/ml in ˜10 mM sodium phosphate (pH ˜7.5), containing varied concentrations of peptide or acetylated peptide. Peptide concentration used in the assays may range from 0 μg/ml to ˜100 μg/ml with intermediate concentrations varied for each peptide in order to maximize the number of data points in or near the transition region.
Assay cultures may be incubated at 37° C. for about two hours. Afterwards, serial dilutions of each assay culture may be prepared and then plated in triplicate onto Luria Bertani broth plates. The plates may be incubated at 37° C. overnight (˜16 h). Colonies may be counted the following morning.
Bacterial survival at each peptide concentration may be calculated according to the ratio of the number of colonies on the plates corresponding to the peptide concentration and the average number of colonies observed for assay cultures lacking peptide. The peptide concentration required to kill ˜50% of tile viable E. coli in the assay cultures (EC50) may be determined by plotting percent survival as a function of the log of peptide concentration (log μg/ml) and fitting the data, using GraphPad Prism (GraphPad Software, Inc., San Diego, Calif.), to Equation (1), which describes a sigmoidal dose-response.
In Equation (1), S is percent survival, ST and SB represent the upper and lower survival boundaries, X is the log of the peptide concentration, and H is the Hill slope of the transition region.
In fitting the data for all peptides and acetylated peptides (except acetylated Pep-1 and acetylated Pep-3), ST and SB may be restricted to values≦100% and ≧0% respectively. For acetylated Pep-1 and acetylated Pep-3, the absence of data points defining the lower boundary necessitated that SB be set to 0% in order to fit the data to Equation (1) and provide an estimated EC50 for these peptides.

horse erythrocytes = format: cell-based
Protocol: Hemolytic activity may be assayed by, for example, incubating horse erythrocytes (e.g., Hemasource Inc. of Eugene, Oreg.). Varied peptide concentrations in phosphate buffered saline (e.g., Cellgro, produced by Mediatech, Inc. of Manassas, Va.) may be used for the incubation process. Hemolysis may be quantified by pelleting cells after incubation using centrifugation, and then measuring the absorbance of the supernatant at about 540 nm.
Hemolytic activities of the free and acetylated peptides may be determined using horse erythrocytes, in an assay adapted to a microtitre plate format. Cells may be prepared by centrifuging ˜1 ml of horse erythrocytes at 1620×g, and then resuspending the pelleted cells in ˜1 ml of 1× Dulbecco's phosphate-buffered saline (Dulbecco's PBS, Mediatech, Manassas, Va.). The cells may then be pelleted again. The process may be repeated (e.g., three more times). Following the final wash, the cells may be resuspended in ˜0.750 ml of PBS. Approximately two hundred microliters of washed erythrocyte suspension may then be diluted into ˜9800 μl of PBS to afford about 2% suspension. Aliquots of sterile water, peptide, and Dulbecco's PBS may then be combined in the wells of a 96 well microtitre plate so as to provide a gradient of peptide concentrations (0, ˜0.1, ˜1, ˜10, ˜100, and ˜1,000 μg/ml), to which the ˜2% erythrocyte may be added. […] An aliquot of supernatant (˜150 μl) from each well may then be transferred to a fresh microtitre plate, and the absorbance at ˜540 nm (heme) may be obtained for each solution. The percent hemolysis may be calculated based on the ratio of the absorption of supernatants from wells containing peptide and the absorption of supernatants from wells containing no peptide. In both cases, the recorded absorption may be adjusted for the background absorption of the plates.
Results of these assays appear in FIG. 21. […] Absorbance at 540 nm was used to monitor the release of hemoglobin by horse erythrocytes that have been incubated with varied concentrations of free peptide or acetylated peptide.

[1] = acetylated peptide, K12 E. coli, 10 mM sodium phosphate pH ~7.5, 2 h 37° C., 90% confidence range in parentheses, ‡ estimated values

Row | Substance | antimicrobial potency as percent of free Pep-1 (K12 E. coli; K12 E. coli, from EC50 values) [%] | Antimicrobial Activity (EC50), Free (K12 E. coli; K12, 2 h) | hemolytic activity (in words) (horse erythrocytes) | other results
1 | Ac-RGRK(Ac)SSRRK(Ac)K(Ac)-OH [acetylated Pep-1] | ~5 |  |  | decrease in potency relative to free Pep-1 (K12 E. coli; K12 E. coli, from EC50 values): sixteen; LC90, Acetylated Peptide (E. coli BL21(DE3)): 94.40 µg/mL
2 | Ac-RGRRSSRRK(Ac)K(Ac)-OH [acetylated Pep-2] | ~25 |  |  | Antimicrobial Activity (EC50), Acetylated (K12 E. coli; K12, 2 h): ~8.1 µg/mL; Antimicrobial Activity (EC50), Acetylated (K12 E. coli; [1]): 8.1 (6.5-9.9) μg/ml
3 | RGRKSSRRKK-NH2 [Pep-3, RGRKSSRRKK-NH2 (SEQ ID NO:5)] |  | 1.2 (1.1-1.2) μg/ml |  | 
4 | RGRRSSRRKK-NH2 [Pep-4, RGRRSSRRKK-NH2 (SEQ ID NO:6)] |  |  | some low-level hemolytic activity | LC90, Free Peptide (E. coli BL21(DE3)): 0.15 µg/mL
5 | RGRRSSRRKK [Pep-2, RGRRSSRRKK (SEQ ID NO:3)] |  | 1.2 (1.1-1.3) μg/ml | some low-level hemolytic activity | 
6 | Ac-RGRK(Ac)SSRRK(Ac)K(Ac)-NH2 [acetylated Pep-3] |  |  |  | Antimicrobial Activity (EC50), Acetylated (K12 E. coli; [1]): ~70 µg/mL
7 | RGRKSSRRKK [Pep-1, RGRKSSRRKK (SEQ ID NO:2)] |  | 2.4 (2.2-2.7) μg/ml | some low-level hemolytic activity | LC90, Free Peptide (E. coli BL21(DE3)): 2.23 µg/mL
8 | Ac-RGRRSSRRK(Ac)K(Ac)-NH2 [acetylated Pep-4] | ~50 |  |  | Antimicrobial Activity (EC50), Acetylated (K12 E. coli; K12, 2 h): 4.9 (4.2-5.8) μg/ml; LC90, Acetylated Peptide (E. coli BL21(DE3)): 1.49 µg/mL
